ChEMBL document CHEMBL1157758, “Structural and stereochemical requirements of the spiroketal group of hippuristanol for antiproliferative activity” (Bioorg Med Chem Lett, 2010)

These compounds were tested on HeLa (assay: Antiproliferative activity against human HeLa cells by [3H]thymidine incorporation).
Type: functional, cell-based

| IC50 | Structure (SMILES) |
| --- | --- |
| 600 nM | CC1(C)CCC[C@@]2(O[C@H]3C[C@H]4[C@@H]5CC[C@H]6C[C@H](O)CC[C@]6(C)[C@H]5[C@@H](O)C[C@]4(C)[C@H]3[C@@]2(C)O)O1 |
| 4900 nM | CC1(C)CCC[C@]2(O[C@H]3C[C@H]4[C@@H]5CC[C@H]6C[C@H](O)CC[C@]6(C)[C@H]5[C@@H](O)C[C@]4(C)[C@H]3[C@@]2(C)O)O1 |
| > 10000 nM | CC1(C)CO[C@]2(C1)O[C@H]1C[C@H]3[C@@H]4CC[C@H]5C[C@H](O)CC[C@]5(C)[C@H]4[C@@H](O)C[C@]3(C)[C@H]1[C@@]2(C)O |
| > 10000 nM | CC1(C)CO[C@@]2(C1)O[C@H]1C[C@H]3[C@@H]4CC[C@H]5C[C@H](O)CC[C@]5(C)[C@H]4[C@@H](O)C[C@]3(C)[C@H]1[C@@]2(C)O |
| > 10000 nM | CC1(C)C[C@@]2(O[C@H]3C[C@H]4[C@@H]5CC[C@H]6C[C@H](O)CC[C@]6(C)[C@H]5[C@@H](O)C[C@]4(C)[C@H]3[C@]2(C)O)OC1(C)C |

The remaining lines, values behind:

| Structure (SMILES) | IC50 |
| --- | --- |
| C[C@]12CC[C@@H](O)C[C@@H]1CC[C@@H]1[C@@H]2[C@@H](O)C[C@@]2(C)[C@H]1C[C@@H]1O[C@@]3(CCCCO3)[C@](C)(O)[C@@H]12 | 1600 nM |
| CCC1(CC)CC[C@@]2(O[C@H]3C[C@H]4[C@@H]5CC[C@H]6C[C@H](O)CC[C@]6(C)[C@H]5[C@@H](O)C[C@]4(C)[C@H]3[C@@]2(C)O)O1 | 3600 nM |
| C[C@]12CC[C@@H](O)C[C@@H]1CC[C@@H]1[C@@H]2[C@@H](O)C[C@@]2(C)[C@H]1C[C@@H]1O[C@]3(CCCCO3)[C@](C)(O)[C@@H]12 | > 10000 nM |
| CC1(C)C[C@@]2(O[C@H]3C[C@H]4[C@@H]5CC[C@H]6C[C@H](O)CC[C@]6(C)[C@H]5[C@@H](O)C[C@]4(C)[C@H]3[C@@]2(C)O)OC1(C)C | 200 nM |
| CC1(C)C[C@]2(O[C@H]3C[C@H]4[C@@H]5CC[C@H]6C[C@H](O)CC[C@]6(C)[C@H]5[C@@H](O)C[C@]4(C)[C@H]3[C@@]2(C)O)OC1(C)C | 2200 nM |
| C[C@H]1C[C@@]2(O[C@H]3C[C@H]4[C@@H]5CC[C@H]6C[C@H](O)CC[C@]6(C)[C@H]5[C@@H](O)C[C@]4(C)[C@H]3[C@@]2(C)O)OC1(C)C [HIPPURISTANOL] | 70 nM |
| CCC1(CC)CC[C@]2(O[C@H]3C[C@H]4[C@@H]5CC[C@H]6C[C@H](O)CC[C@]6(C)[C@H]5[C@@H](O)C[C@]4(C)[C@H]3[C@@]2(C)O)O1 | > 10000 nM |
